What was measured:
Phakopsora pachyrhizi = test: Protective control of soy bean rust on soy beans (Use Example 4, greenhouse comparative test); assay type: in vivo; details: soy bean seedlings, inoculated 1 day after spraying, untreated control 80
Procedure: The spray solutions were prepared in several steps:
The stock solutions were prepared: a mixture of acetone and/or dimethylsulfoxide and the wetting agent/emulsifier Wettol, which is based on ethoxylated alkylphenoles, in a relation (volume) solvent-emulsifier of 99 to 1 was added to 25 mg of the compound to give a total of 5 ml. Water was then added to total volume of 100 ml.
This stock solution was diluted with the described solvent-emulsifier-water mixture to the given concentration.
Leaves of pot-grown soy bean seedlings were sprayed to run-off with an aqueous suspension, containing the concentration of active ingredient or their mixture as described below. The plants were allowed to air-dry. The trial plants were cultivated for 1 day in a greenhouse chamber at 23-27° C. and a relative humidity between 60 and 80%. Then the plants were inoculated with spores of Phakopsora pachyrhizi. To ensure the success the artificial inoculation, the plants were transferred to a humid chamber with a relative humidity of about 95% and 20 to 24° C. for 24 h. The trial plants were cultivated for fourteen days in a greenhouse chamber at 23-27° C. and a relative humidity between 60 and 80%. The extent of fungal attack on the leaves was visually assessed as % diseased leaf area.

[1] = system: Puccinia recondita (Puccrt K4); test: Curative control of brown rust on wheat (Use Example 5, greenhouse comparative test); assay type: in vivo; details: wheat seedlings, sprayed after inoculation, untreated control 90
Procedure: The spray solutions were prepared in several steps: The stock solutions were prepared: a mixture of acetone and/or dimethylsulfoxide and the wetting agent/emulsifier Wettol, which is based on ethoxylated alkylphenoles, in a relation (volume) solvent-emulsifier of 99 to 1 was added to 25 mg of the compound to give a total of 5 ml. Water was then added to total volume of 100 ml. This stock solution was diluted with the described solvent-emulsifier-water mixture to the given concentration. The first two developed leaves of pot-grown wheat seedling were dusted with spores of Puccinia recondita. To ensure the success the artificial inoculation, the plants were transferred to a humid chamber without light and a relative humidity of 95 to 99% and 20 to 24° C. for 24 h. The next day the plants were cultivated for 3 days in a greenhouse chamber at 20-24° C. and a relative humidity between 65 and 70%. Then the plants were sprayed to run-off with an aqueous suspension, containing the concentration of active ingredient or their mixture as described below. The plants were allowed to air-dry. Then the trial plants were cultivated for 8 days in a greenhouse chamber at 20-24° C. and a relative humidity between 65 and 70%. The extent of fungal attack on the leaves was visually assessed as % diseased leaf area.

## OC(Cn1cncn1)(c1ccccc1)c1ccc(Oc2ccc(Cl)cc2)cc1Cl (stereo not drawn) [Compound I-1]
Phakopsora pachyrhizi
  Disease (%) at 150 ppm: 1%

## OC(Cc1ccccc1)(Cn1cncn1)c1ccc(Oc2ccc(Cl)cc2)cc1Cl (stereo not drawn) [Compound I-2, 2-[2-chloro-4-(4-chloro-phenoxy)-phenyl]-1-phenyl-3-[1,2,4]triazol-1-yl-propan-2-ol]
Phakopsora pachyrhizi
  Disease (%) at 150 ppm: 3%
[1]
  Disease (%) at 63 ppm: 35%

## OC(C#Cc1ccccc1)(Cn1cncn1)c1ccc(Oc2ccc(Cl)cc2)cc1Cl (stereo not drawn) [Compound I-4]
[1]
  Disease (%) at 63 ppm: 20%

## OC(/C=C/c1ccccc1)(Cn1cncn1)c1ccc(Oc2ccc(Cl)cc2)cc1Cl (stereo not drawn) [Compound V20, reference compound]
Phakopsora pachyrhizi
  Disease (%) at 150 ppm: 50%
[1]
  Disease (%) at 63 ppm: 55%
